These compounds were tested on C57BL/6 mice (assay: In vivo expression level of Luciferase-mRNA delivered by intravenous injection (bioluminescence imaging)). Settings: mRNA-loaded nanoparticles, compounds of Example 1; intravenous (tail vein), 5 μg Luciferase-mRNA, 6 hours.
Protocol: Luciferase-mRNA was used as an mRNA model; and the cationic lipid analogues of Examples 1-5 were used to prepare drug-loaded nanoparticles according to the method of Example 6.
200 μL of nanoparticles containing 5 μg Luciferase-mRNA or the drug-loaded nanoparticles prepared above were injected into tail veins of 6-8 week-old C57BL/6 mice, and 200 μL of 1×PBS solution containing 3 mg D-Luciferin potassium salt was intraperitoneally injected into the mice 6 hours later. After waiting for 10 minutes, an in vivo expression level of the mRNA was evaluated by bioluminescence imaging.

Going from `CCCCCCCCCCCCC#CC#CCCCCCCCCC(=O)N(CCCN(C)C)C(C(=O)NCCCCCCCCCCCCCCCCCC)C1CCCCC1` (stereo not drawn) [A23I18R2C23] to `CCCCCCCCCCCCC#CC#CCCCCCCCCC(=O)N(CCN(C)C)C(C(=O)NCCCCCCCCCCCCCCCCCC)C1CCCCC1` (stereo not drawn) [A23I18R1C23], the “Fluorescence intensity of liver” value rises from 2.37E+06 to 6.11E+06.

Compared with `CCCCC/C=C\C/C=C\CCCCCCCC(=O)N(CCN(C)CC)C(C(=O)NCCCCCCCCCCCCCCCCCC)C(CC)CCCC` (stereo not drawn) [A4I18R6C18-2], `CCCCC/C=C\C/C=C\CCCCCCCC(=O)N(CCCN(C)C)C(C(=O)NCCCCCCCCCCCCCC)C(CC)CCCC` (stereo not drawn) [A4I14R2C18-2] is higher in “Fluorescence intensity of liver” value: 3.64E+04 for the first, 9.02E+05 for the second.

Compared with `CC/C=C\C/C=C\C/C=C\CCCCCCCC(=O)N(CCN(C)C)C(C(=O)NCCCCCCCCCCCCCCCCCC)C1CCCCC1` (stereo not drawn) [A23I18R1C18-3], `CCCCC/C=C\C/C=C\CCCCCCCC(=O)N(CCN(C)C)C(C(=O)NCCCCCCCCCCCCCCCCCC)C1CCCCC1` (stereo not drawn) [A23I18R1C18-2] is higher in “Fluorescence intensity of liver” value: 4.14E+06 for the first, 8.25E+06 for the second.

First: CCCCCCCCCCCCCCCCCCNC(=O)C(C1CCCCC1)N(CCN(C)C)C(=O)CCCCCCCCCCCCCCCCC (stereo not drawn) [A23I18R1C18]
Second: CCCCCCCCCCCCCCCCCCNC(=O)C(C1CCCCC1)N(CCCN(CC)CC)C(=O)CCCCCCCCCCCCCCCCC (stereo not drawn) [A23I18R3C18]
The “Fluorescence intensity of liver” value of the first is higher: 9.09E+04 for the first, 2.14E+03 for the second.

Compared with `CCCCCCCC/C=C\CCCCCCCC(=O)N(CCCN(CC)CC)C(C(=O)NCCCCCCCCCCCCCCCCCC)C1CCCCC1` (stereo not drawn) [A23I18R3C18-1], `CCCCCCCC/C=C\CCCCCCCC(=O)N(CCCN(C)C)C(C(=O)NCCCCCCCCCCCCCCCCCC)C1CCCCC1` (stereo not drawn) [A23I18R2C18-1] is higher in “Fluorescence intensity of liver” value: 1.26E+06 for the first, 1.29E+06 for the second.

Going from `CCCCC/C=C\C/C=C\CCCCCCCC(=O)N(CCC1CCCN1C)C(CCCCC)C(=O)NCCCCCCCCCCCCCCCCCC` (stereo not drawn) [A4I18R11C18-2] to `CCCCC/C=C\C/C=C\CCCCCCCC(=O)N(CCN1CCCC1)C(CCCCC)C(=O)NCCCCCCCCCCCCCCCCCC` (stereo not drawn) [A4I18R10C18-2], the “Fluorescence intensity of liver” value falls from 1.02E+06 to 7.89E+05.

Going from `CCCCCCCCCCCCC#CC#CCCCCCCCCC(=O)N(CCCN(CC)CC)C(C(=O)NCCCCCCCCCCCCCCCCCC)C1CCCCC1` (stereo not drawn) [A23I18R3C23] to `CCCCCCCCCCCCC#CC#CCCCCCCCCC(=O)N(CCCN(CC)CC)C(C(=O)NCCCCCCCCCCCCCCCCCC)C(CC)CCCC` (stereo not drawn) [A4I18R3C23], the “Fluorescence intensity of liver” value rises from 7.89E+05 to 7.81E+06.

Compared with `CCCCC/C=C\C/C=C\CCCCCCCC(=O)N(CCN1CCOCC1)C(C(=O)NCCCCCCCCCCCCCCCCCC)C(CC)CCCC` (stereo not drawn) [A4I18R4C18-2], `CCCCC/C=C\C/C=C\CCCCCCCC(=O)N(CCCN1CCN(C)CC1)C(CCCCC)C(=O)NCCCCCCCCCCCCCCCCCC` (stereo not drawn) [A4I18R9C18-2] is lower in “Fluorescence intensity of liver” value: 1.25E+04 for the first, 2.55E+03 for the second.

Going from `CCCCCCCCCCCCC#CC#CCCCCCCCCC(=O)N(CCN(C)C)C(C(=O)NCCCCCCCCCCCCCCCCCC)C(CC)CCCC` (stereo not drawn) [A4I18R1C23] to `CCCCCCCCCCCCCCCCCCNC(=O)C(C(C)C)N(CCN(C)C)C(=O)CCCCCCCCCCCCCCCCC` (stereo not drawn) [A1I18R1C18], the “Fluorescence intensity of liver” value falls from 1.78E+06 to 6.37E+03.

Compared with `CCCCCCCC/C=C\CCCCCCCC(=O)N(CCCN(C)C)C(C(=O)NCCCCCCCCCCCCCCCCCC)C(C)C` (stereo not drawn) [A1I18R2C18-1], `CC/C=C\C/C=C\C/C=C\CCCCCCCC(=O)N(CCCN(C)C)C(C(=O)NCCCCCCCCCCCCCCCCCC)C(C)C` (stereo not drawn) [A1I18R2C18-3] is higher in “Fluorescence intensity of liver” value: 2.63E+04 for the first, 6.77E+04 for the second.

With `CC/C=C\C/C=C\C/C=C\CCCCCCCC(=O)N(CCN(C)C)C(C(=O)NCCCCCCCCCCCCCCCCCC)C(C)C` (stereo not drawn) [A1I18R1C18-3] the “Fluorescence intensity of liver” value was 1.88E+06.

First: CCCCCCCCCCCCC#CC#CCCCCCCCCC(=O)N(CCCN(CC)CC)C(C(=O)NCCCCCCCCCCCCCCCCCC)C(CC)CCCC (stereo not drawn) [A4I18R3C18-3]
Second: CCCCCCCCCCCCC#CC#CCCCCCCCCC(=O)N(CCCN(C)C)C(C(=O)NCCCCCCCCCCCCCCCCCC)C(CC)CCCC (stereo not drawn) [A4I18R2C23]
The Bioluminescence intensity of the first is lower: 1.32E+07 for the first, 1.40E+07 for the second.

Same assay, conditions: mRNA-loaded nanoparticles, compounds of Example 2; intravenous (tail vein), 5 μg Luciferase-mRNA, 6 hours

Compared with `CCCCCCSSCCC(=O)N(CCO)C(C(=O)NCCN(C)CCNC(=O)C(C(C)C)N(CCO)C(=O)CCSSCCCCCC)C(C)C` (stereo not drawn) [A1I4R22S11], `CCCCCCCCCCCCCCSSCCC(=O)N(CCO)C(C(=O)NCCN(C)CCNC(=O)C(C(C)C)N(CCO)C(=O)CCSSCCCCCCCCCCCCCC)C(C)C` (stereo not drawn) [A1I4R22S19] is higher in “Fluorescence intensity of spleen” value: 1.00E+03 for the first, 2.50E+04 for the second.

Compared with `CCCCCCCCCCCCCCCCCC(=O)N(CCN1CCCCCC1)C(C(=O)NCCN(C)CCNC(=O)C(C1CC1)N(CCN1CCCCCC1)C(=O)CCCCCCCCCCCCCCCCC)C1CC1` (stereo not drawn) [A21I4R13C18], `CCCCCCCCCCCCCCCCCC(=O)N(CCC)C(C(=O)NCCN(C)CCNC(=O)C(C1CC1)N(CCC)C(=O)CCCCCCCCCCCCCCCCC)C1CC1` (stereo not drawn) [A21I4R21C18] is higher in “Fluorescence intensity of spleen” value: 1.12E+03 for the first, 5.31E+03 for the second.

Compared with `CCCCCCCCCCCCCCCCCC(=O)N(CCCN(C)C)C(C(=O)NCCN(C)CCNC(=O)C(C1CC1)N(CCCN(C)C)C(=O)CCCCCCCCCCCCCCCCC)C1CC1` (stereo not drawn) [A21I4R2C18], `CCCCCCCCCCCCCCCCCC(=O)N(CCCN(C)C)C(C(=O)NCCN(C)CCNC(=O)C(C(C)C)N(CCCN(C)C)C(=O)CCCCCCCCCCCCCCCCC)C(C)C` (stereo not drawn) [A1I4R2C18] is higher in “Fluorescence intensity of spleen” value: 1.04E+03 for the first, 1.79E+04 for the second.

Going from `CCCCC/C=C\C/C=C\CCCCCCCC(=O)N(CCN1CCCCCC1)C(C(=O)NCCN(C)CCNC(=O)C(C(CC)CCCC)N(CCN1CCCCCC1)C(=O)CCCCCCC/C=C\C/C=C\CCCCC)C(CC)CCCC` (stereo not drawn) [A4I4R13C18-2] to `CCCCCCCC/C=C\CCCCCCCC(=O)N(CCN1CCCCCC1)C(C(=O)NCCN(C)CCNC(=O)C(C(C)C)N(CCN1CCCCCC1)C(=O)CCCCCCC/C=C\CCCCCCCC)C(C)C` (stereo not drawn) [A1I4R13C18-1], the “Fluorescence intensity of spleen” value falls from 1.19E+04 to 2.67E+03.

First: CCCCC/C=C\C/C=C\CCCCCCCC(=O)N(CCO)C(C(=O)NCCN(C)CCNC(=O)C(C1CC1)N(CCO)C(=O)CCCCCCC/C=C\C/C=C\CCCCC)C1CC1 (stereo not drawn) [A21I4R22C18-2]
Second: CCCCC/C=C\C/C=C\CCCCCCCC(=O)N(CCC)C(C(=O)NCCN(C)CCNC(=O)C(C1CC1)N(CCC)C(=O)CCCCCCC/C=C\C/C=C\CCCCC)C1CC1 (stereo not drawn) [A21I4R21C18-2]
The “Fluorescence intensity of spleen” value of the first is lower: 1.26E+03 for the first, 1.39E+03 for the second.

First: CCCCCCCCCCCC(=O)N(CCO)C(C(=O)NCCN(C)CCNC(=O)C(C(C)C)N(CCO)C(=O)CCCCCCCCCCC)C(C)C (stereo not drawn) [A1I4R22C12]
Second: CCCCCCCCCCCCCC(=O)N(CCO)C(C(=O)NCCN(C)CCNC(=O)C(C(C)C)N(CCO)C(=O)CCCCCCCCCCCCC)C(C)C (stereo not drawn) [A1I4R22C14]
The “Fluorescence intensity of spleen” value of the first is higher: 3.90E+03 for the first, 2.30E+03 for the second.

Compared with `CCCCC/C=C\C/C=C\CCCCCCCC(=O)N(CCCN(C)C)C(C(=O)NCCN(C)CCNC(=O)C(C(CC)CCCC)N(CCCN(C)C)C(=O)CCCCCCC/C=C\C/C=C\CCCCC)C(CC)CCCC` (stereo not drawn) [A4I4R2C18-2], `CCCCCCCC/C=C\CCCCCCCC(=O)N(CCC)C(C(=O)NCCN(C)CCNC(=O)C(C(CC)CCCC)N(CCC)C(=O)CCCCCCC/C=C\CCCCCCCC)C(CC)CCCC` (stereo not drawn) [A4I4R21C18-1] is higher in “Fluorescence intensity of spleen” value: 1.86E+04 for the first, 3.02E+04 for the second.

Compared with `CCCCCCCCCCCCCCCCCC(=O)N(CCC)C(C(=O)NCCN(C)CCNC(=O)C(C(C)C)N(CCC)C(=O)CCCCCCCCCCCCCCCCC)C(C)C` (stereo not drawn) [A1I4R21C18], `CCCCCCCCCCCCCCCC(=O)N(CCO)C(C(=O)NCCN(C)CCNC(=O)C(C(C)C)N(CCO)C(=O)CCCCCCCCCCCCCCC)C(C)C` (stereo not drawn) [A1I4R22C16] is lower in “Fluorescence intensity of spleen” value: 3.46E+04 for the first, 2.30E+03 for the second.

With `CCCCCCCCCCCCCCCCCC(=O)N(CCCN(C)C)C(C(=O)NCCN(C)CCNC(=O)C(C(CC)CCCC)N(CCCN(C)C)C(=O)CCCCCCCCCCCCCCCCC)C(CC)CCCC` (stereo not drawn) [A4I4R2C18] the “Fluorescence intensity of spleen” value was 2.24E+03.

First: CCCCCCCC/C=C\CCCCCCCC(=O)N(CCN1CCCCCC1)C(C(=O)NCCN(C)CCNC(=O)C(C1CCCCC1)N(CCN1CCCCCC1)C(=O)CCCCCCC/C=C\CCCCCCCC)C1CCCCC1 (stereo not drawn) [A23I4R13C18-1]
Second: CCCCCCCC/C=C\CCCCCCCC(=O)N(CCCN(C)C)C(C(=O)NCCN(C)CCNC(=O)C(C1CC1)N(CCCN(C)C)C(=O)CCCCCCC/C=C\CCCCCCCC)C1CC1 (stereo not drawn) [A21I4R2C18-1]
The Bioluminescence intensity of the first is lower: 6.61E+02 for the first, 8.38E+02 for the second.

`CCCCCCCCCCCCCCCCCC(=O)N(CCN1CCCCCC1)C(C(=O)NCCN(C)CCNC(=O)C(C(C)C)N(CCN1CCCCCC1)C(=O)CCCCCCCCCCCCCCCCC)C(C)C` (stereo not drawn) [A1I4R13C18] showed a Bioluminescence intensity of 5.76E+02.

Same assay, conditions: mRNA-loaded nanoparticles, compounds of Example 3; intravenous (tail vein), 5 μg Luciferase-mRNA, 6 hours

First: CCCCC/C=C\C/C=C\CCCCCCCC(=O)N(CCO)C(C(=O)NCCN(CCNC(=O)C(C(C)C)N(CCO)C(=O)CCCCCCC/C=C\C/C=C\CCCCC)CCNC(=O)C(C(C)C)N(CCO)C(=O)CCCCCCC/C=C\C/C=C\CCCCC)C(C)C (stereo not drawn) [A1I5R22C18-2]
Second: CCCCCCCC(=O)N(CCO)C(C(=O)NCCN(CCNC(=O)C(C(C)C)N(CCO)C(=O)CCCCCCC)CCNC(=O)C(C(C)C)N(CCO)C(=O)CCCCCCC)C(C)C (stereo not drawn) [A1I5R22C8]
The “Fluorescence intensity of spleen” value of the first is higher: 6.90E+05 for the first, 1.50E+05 for the second.

First: CCCCCCSSCCC(=O)N(CCO)C(C(=O)NCCN(CCNC(=O)C(C(C)C)N(CCO)C(=O)CCSSCCCCCC)CCNC(=O)C(C(C)C)N(CCO)C(=O)CCSSCCCCCC)C(C)C (stereo not drawn) [A1I5R22S11]
Second: CCCCCCCCCCCCSSCCC(=O)N(CCO)C(C(=O)NCCN(CCNC(=O)C(C(C)C)N(CCO)C(=O)CCSSCCCCCCCCCCCC)CCNC(=O)C(C(C)C)N(CCO)C(=O)CCSSCCCCCCCCCCCC)C(C)C (stereo not drawn) [A1I5R22S17]
The “Fluorescence intensity of spleen” value of the first is lower: 1.30E+05 for the first, 6.40E+05 for the second.

With `CCCCCCCCCCCCCCCCCC(=O)N(CCO)C(C(=O)NCCN(CCNC(=O)C(C(C)C)N(CCO)C(=O)CCCCCCCCCCCCCCCCC)CCNC(=O)C(C(C)C)N(CCO)C(=O)CCCCCCCCCCCCCCCCC)C(C)C` (stereo not drawn) [A1I5R22C18] the “Fluorescence intensity of spleen” value was 1.10E+05.

Reference: patent US20250161216A1, “CATIONIC LIPID ANALOGUES, COMPOSITIONS AND USES THEREOF” (GUANGZHOU LIDE BIOMEDICINE TECHNOLOGY CO., LTD., priority 2022, published 2025)
